The values below come from PubChem BioAssay AID540258 (Broad Institute, 2011).

The structures appear in SMILES notation. Calls of active or inactive are those of the source.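 How the source made its calls: active means fitted curve reaching 40% activation at or below the top valid dose tested; inconclusive means flat curve at 30 to 70% activation, or poor fit; inactive means the rest.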

System in the first assay: not listed separately
The assay is described as follows: MITF activators via TRPM1 promoter reporter, dose response, SK-MEL-5 cells, luciferase, cherry-pick samples (AID 540258).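 On AC40: potency for activators that raise TRPM1 promoter luciferase signal.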 The conditions noted are these: SK-MEL-5 TRPM1 promoter luciferase reporter, 24 h; at 11 µM (top of the series); 100% = twice the neutral-control signal.
For `Cc1ccn2cc(C(=O)Nc3nnc(C)s3)nc2c1`, the activation was 28.3% (inactive).

Staying with this assay, now noted: SK-MEL-5 TRPM1 promoter luciferase reporter, 24 h; at 35 µM (top of the series); 100% = twice the neutral-control signal.
With `CCN(CC)S(=O)(=O)c1cc(C(=O)Nc2cc(C)[nH]n2)ccc1Cl`, the activation is 32.8% (inactive).
On the same count and under the same terms, as for `O=C(CNC(=O)c1cccs1)c1ccc(Br)cc1`, the figure is 1.98% (inactive); as for `O=C(Nc1ccccc1)C(=O)Nc1ccc2c(c1)N(C(=O)C1CC1)CCC2`, -36.8% (inactive).
On the same count and under the same terms, as for `Cc1ccc(NC(=O)CN2CCCC2c2cccn2C)c(Br)c1` (stereo not given), the figure is 29% (inactive); as for `Cc1ccc(SCc2cn3c(C)csc3n2)cc1`, -37.7% (inactive); as for `CN1CCc2c(sc(NC(=O)c3ccc4ccccc4c3)c2C(N)=O)C1`, -68.3% (inactive).
Consider `CCN(CC)S(=O)(=O)c1cccc(C(=O)N/N=C(\C)c2cccs2)c1`, for which the activation is 23.7% (inactive).
As to `COc1ccc(-c2cc(=O)c3cc(C)ccc3[nH]2)cc1`, the activation was -4.97% (inactive).
For the compound `Cc1ccc(Nc2nc(CSc3n[nH]c(N)n3)cs2)cc1`, the activation is -11.9% (inactive).
Take `C/C(=N\OC(=O)c1cccc(C(F)(F)F)c1)c1sc(-c2ccccc2)nc1C`: the activation was 14.6% (inactive).
Same read-out and setting: as for `Cc1nnc2sc(-c3ccc(N(C)C)cc3)nn2c1=O`, the figure is -5.15% (inactive); as for `COc1cccc(/C=N/Nc2c(Cl)cncc2Cl)c1O`, 25.5% (inactive); as for `CCCc1ccc(-c2cc(C(=O)NCCc3ccc(S(N)(=O)=O)cc3)c3ccccc3n2)cc1`, 26.4% (inactive).
Consider `Cc1ccn2cc(-c3cccc(NS(C)(=O)=O)c3)nc2c1`, for which the activation is 32.6% (inactive).
With `CC(=O)c1ccc(NC(=O)c2noc3c2CCCCC3)cc1`, the activation was -0.504% (inactive).
On the same count and under the same terms, as for `COc1cccc(CN(C)C(=O)c2ccc(COc3ccc(Cl)cc3)cc2)c1OC`, the figure is 32.6% (inactive); as for `CC(C)(C)C(=O)Nc1nc2cc3c(cc2s1)OCO3`, -25.8% (inactive).
The same measure, in the same setting: as for `CCc1nnc(NS(=O)(=O)c2ccc(NC(=O)c3cccc(Cl)c3)cc2)s1`, the figure is -14.9% (inactive); as for `CC(C)NC(=O)c1ccc2c3n(nc2c1)-c1ccc(Cl)cc1CO3`, -2.69% (inactive); as for `Cc1nc2ccccn2c1C(=O)N/N=C/c1ccc2c(c1)OCO2`, 34.3% (inactive).
Same read-out and setting: as for `Cc1cccc(C(=O)Nc2sc3c(c2C#N)CCCCC3)c1`, the figure is 3.85% (inactive); as for `CC1CCC(NC(=O)c2cc3c(s2)CCCC3)CC1` (stereo not given), 33.2% (inactive); as for `Fc1ccccc1Nc1nc2ccccc2o1`, -20% (inactive).
`O=c1[nH]c(Cc2cccs2)nc2scc(-c3ccc(Cl)cc3)c12`: the activation is 14.1% (inactive).
The same measure, in the same setting: as for `COC(=O)C(C)N1C(=O)S/C(=C/c2cc(C)n(C(C)C)c2C)C1=O` (stereo not given), the figure is -32% (inactive).
Still for that read-out and setting: as for `CC(c1ccccc1)c1nnc(NC(=O)Nc2ccccc2F)s1` (stereo not given), the figure is 38.2% (inactive); as for `Nc1ncccc1OCc1ccc(Br)cc1`, -6.84% (inactive); as for `COC(=O)Nc1nnc(-c2ccccc2Cl)s1`, 36% (inactive).
Regarding `O=C(Nc1cccc2[nH]ncc12)c1ccc(F)cc1`, the activation was 28.3% (inactive).
Same read-out and setting: as for `COc1ccc(C(=O)Nc2cc(OC)nc(OC)n2)cc1`, the figure is 6.12% (inactive); as for `Cc1ccc(N=Nc2ccc(O)cc2)c(Br)c1`, -1.83% (inactive); as for `O=c1[nH]c(COc2ccccc2)nc2ccccc12`, 24.6% (inactive).
In the case of `O=C(N/N=C/c1ccc(OC(=O)c2ccccc2Cl)cc1)c1ccccn1`, the activation is 6.04% (inactive).
The same measure, in the same setting: as for `Cc1ccc(/C=N/c2sc3c(c2C#N)CCC3)s1`, the figure is 3.01% (inactive); as for `CCn1cnc2c(Nc3cccc(Cl)c3)nc(C#N)nc21`, 14.6% (inactive).
The same measure, in the same setting: under `CC(C)(C)c1csc(NC2=NS(=O)(=O)c3ccccc32)n1` stands 7.7% (inactive); under `O=C(CNc1ccccc1OC(F)F)N1CCc2ccccc21`, 31.9% (inactive); under `CCN(CC)C(=O)Oc1ccc2c(=O)c(-c3ccc(OC)cc3)coc2c1`, -22.5% (inactive).
As for `Cc1ccc2oc(Nc3nc(C)c(C)c(C)n3)nc2c1`, the activation was 34.2% (inactive).
Regarding `CCN(CC)c1ccc(C(=O)NNC(=O)c2cccn2C)cc1`, the activation is 25.3% (inactive).
On the same count and under the same terms, as for `Cc1cc(C)n2nc(SCN3C(=O)c4ccccc4C3=O)nc2n1`, the figure is -5.27% (inactive).
The same measure, in the same setting: under `COc1ccc(/C=C/c2ccc3c(Br)ccc(O)c3n2)cc1` stands 25.4% (inactive).
Same read-out and setting: under `CC(C)(C)N1C(=O)c2ccc(C(=O)Nc3nccs3)cc2C1=O` stands 39% (inactive); under `CSCC[C@H](NC(=O)[C@@H]1Cc2ccccc2CN1)C(=O)NC[C@H]1CC[C@H](C(=O)O)CC1`, -11.7% (inactive); under `c1ccc(-c2ccc(-c3cnc4n3CCCCC4)cc2)cc1`, 30.4% (inactive).
As to `O=C(Nc1cnc2ccccc2c1)N1CCCCC1`, the activation is 8.92% (inactive).
On to `COc1cccc(CNc2nc3ccccc3n2C)c1O`, for which the activation was -9.75% (inactive).
Still for that read-out and setting: as for `CC(=O)Nc1cccc(-c2csc(Nc3ccc(C)cn3)n2)c1`, the figure is -25.2% (inactive).
Same read-out and setting: as for `COc1ccccc1C(=O)Nc1ccc2c(C)cc(=O)oc2c1`, the figure is 29.6% (inactive).
Still for that read-out and setting: as for `Cc1ccccc1C(=O)O/N=C(\N)Cc1cccs1`, the figure is 23.1% (inactive).
In the case of `COc1ccc(NC2=Nc3ccccc3CC2)cc1`, the activation was 2.84% (inactive).
The same measure, in the same setting: as for `Cc1cc(C)n(-c2nnc(NC(C)(C)C)nn2)n1`, the figure is 31.6% (inactive).
Turning to `Cc1c(C(=O)Nc2ccccc2F)cnn1-c1ccccc1`, the activation was 27.5% (inactive).
Same read-out and setting: under `CC(C)C(=O)Nc1cccc(C(=O)Nc2nnc(C(C)C)s2)c1` stands 16.6% (inactive).
Still for that read-out and setting: as for `COC(=O)Cn1c(=NC(=O)c2ccc(Cl)s2)sc2cc(C)ccc21`, the figure is 23.7% (inactive).

The subject of another assay is SK-MEL-5 TRPM1 promoter luciferase reporter, 24 h. The assay is described as above.
Conditions: not given
Consider `Cc1cnc(NC(=O)Nc2ccc(Cl)cc2)s1`, for which the AC40 is 1.38 µM.
Same read-out and setting: under `CC1CCCC(C)N1C(=O)c1cc(-c2ccc3c(c2)OCO3)on1` (stereo not given) stands 1.25 µM.
Still for that read-out and setting: under `Cc1ccc(OC(=O)c2cccc(S(=O)(=O)N3CCCC3)c2)c(-n2nc3ccccc3n2)c1` stands 1.41 µM; under `CCN(CC)c1ccc(-c2nc3cnccc3n2C)cc1`, 1.64 µM.
On the same count and under the same terms, under `O=C1C(=O)N(c2ccccc2)P(=O)(N(CCCl)CCCl)N1c1ccccc1` stands 16.1 µM; under `CC(C)(C)c1ccc(C(=O)NCc2ccccc2)cc1`, 8.05 µM.
On to `COC(=O)c1ccc(CSC2=NCCS2)cc1`, for which the AC40 was 3.38 µM.
Still for that read-out and setting: as for `Cc1cc2c([nH]c3ccccc32)c2c1OC(C)(C)C=C2`, the figure is 3.8 µM; as for `CC(C)(C)c1ccc(SCCc2ccccn2)cc1`, 1.98 µM; as for `COc1ccc(NC(=O)CCCn2c(=O)oc3ccccc32)cc1Cl`, 3.94 µM.
The same measure, in the same setting: under `NC(=O)c1ccc(-c2noc(-c3cccc(Cl)c3)n2)cc1` stands 3.8 µM.
Still for that read-out and setting: as for `COc1ccccc1OCc1cc(-c2ccccc2)no1`, the figure is 2.28 µM.
For the compound `CC(=O)c1sc(NC(=O)c2ccccc2F)nc1-c1ccccc1`, the AC40 was 3.02 µM.
Still for that read-out and setting: under `Cc1cccc(C(=O)Oc2ccc(/C=N/O)cc2)c1` stands 2.74 µM.
On the same count and under the same terms, under `COc1ccc(/C=N/Nc2ccccn2)cc1O` stands 3.01 µM; under `c1ccc(COc2ccc(-c3csnn3)cc2)cc1`, 0.889 µM; under `COc1cc(OC)cc(-c2cc3cc(F)ccc3cn2)c1`, 1.71 µM.
Still for that read-out and setting: under `CCc1ccc(C(=O)NC2CCCCC2)s1` stands 2.95 µM; under `COc1ccc(-c2ccc3ccccc3n2)cc1OC`, 1.38 µM.
